Active and inactive are the calls of the source. The rule behind the calls is not given here.
Experiments:
[1] = biological target: Sodium channel protein type 9 subunit alpha (Homo sapiens, UniProt Q15858); experiment: Inhibition of full length human Nav1.7 channel expressed in HEK cells co-expressing human sodium channel subunit beta1 at holding potential -60 mV by automated voltage clamp analysis; format: cell-based, HEK293
hERG (KCNH2) = hERG (KCNH2) (Homo sapiens, UniProt Q12809); experiment: Displacement of [3H] astemizole from human ERG channel at 5 uM; conditions: probe [3H] astemizole
[2] = biological target: Sodium channel protein type 5 subunit alpha (Homo sapiens, UniProt Q14524); experiment: Inhibition of full length human Nav1.5 channel expressed in HEK cells co-expressing human sodium channel subunit beta1 at holding potential -60 mV by automated voltage clamp analysis; format: cell-based, HEK293
Rattus norvegicus [3] = experiment: Analgesic activity in rat assessed as delay in onset of formalin-induced pain response at 100 mg/kg,ip dosed 2 hrs prior to formalin challenge measured over 60 mins by automated nociception analysis; format: functional, organism-based
[4] = Selectivity ratio of IC50 for rat Nav1.7 to IC50 for human Nav1.7
Rattus norvegicus [5] = experiment: Analgesic activity in rat assessed as inhibition of aconitine-induced pain response at 30 mg/kg, ip dosed 2 hrs prior to aconitine challenge measured over 60 mins by automated nociception analysis relative to control; format: functional, organism-based
Rattus norvegicus [6] = experiment: Analgesic activity in ip dosed rat assessed as inhibition of formalin-induced late phase pain response dosed 2 hrs prior to formalin challenge measured over 10 to 40 mins by automated nociception analysis; format: functional, organism-based
Rattus norvegicus [7] = experiment: Analgesic activity in rat assessed as inhibition of formalin-induced late phase pain response at 30 mg/kg,ip dosed 2 hrs prior to formalin challenge measured over 10 to 40 mins by automated nociception analysis; format: functional, organism-based
Mus musculus [8] = experiment: Analgesic activity in ip dosed mouse assessed as reduction in CFA-induced cold allodynia administered 1 hr prior to acetone challenge on day 2 post CFA injection measured for 120 secs relative to vehicle control; format: functional, organism-based
Mus musculus [9] = experiment: Analgesic activity in mouse assessed as reduction in CFA-induced cold allodynia at 10 mg/kg, ip administered 1 hr prior to acetone challenge on day 2 post CFA injection measured for 120 secs relative to vehicle control; format: functional, organism-based
Mus musculus [10] = experiment: Analgesic activity in mouse assessed as reduction in CFA-induced cold allodynia at 30 mg/kg, ip administered 1 hr prior to acetone challenge on day 2 post CFA injection measured for 120 secs relative to vehicle control; format: functional; design: scale not given: the % may be the effect or the level left
Rattus norvegicus [11] = experiment: Analgesic activity in formalin-induced rat pain model assessed as free plasma concentration required to show efficacy at 30 to 100 mg/kg, ip dosed 2 hrs prior to aconitine challenge measured over 60 mins by automated nociception analysis; format: functional
Rattus norvegicus [12] = experiment: Analgesic activity in aconitine-induced rat pain model assessed as free plasma concentration required to show efficacy at 30 to 100 mg/kg, ip dosed 2 hrs prior to aconitine challenge measured over 60 mins by automated nociception analysis; format: functional
Mus musculus [13] = experiment: Analgesic activity in mouse assessed as reduction in CFA-induced cold allodynia at 100 mg/kg, ip administered 1 hr prior to acetone challenge on day 2 post CFA injection measured for 120 secs relative to vehicle control; format: functional; design: scale not given: the % may be the effect or the level left
Rattus norvegicus [14] = experiment: Analgesic activity in rat assessed as inhibition of aconitine-induced pain response at 100 mg/kg, ip dosed 2 hrs prior to aconitine challenge measured over 60 mins by automated nociception analysis relative to aconitine; format: functional; design: scale not given: the % may be the effect or the level left
Rattus norvegicus [15] = experiment: Analgesic activity in rat assessed as reduction in formalin-induced late phase pain response at 100 mg/kg, ip dosed 2 hrs prior to formalin challenge measured over 10 to 40 mins by automated nociception analysis relative to formalin; format: functional; design: scale not given: the % may be the effect or the level left
Cytochrome P450 3A4 = Cytochrome P450 3A4 (Homo sapiens, UniProt P08684); experiment: Inhibition of CYP3A4 in human liver microsomes using testosterone/midazolam as substrate after 30 mins by LC/MS/MS analysis; format: ADME
Cytochrome P450 1A2 = biological target: T1, Cytochrome P450 1A2 (Homo sapiens, UniProt P05177); experiment: Inhibition of CYP1A2 in human liver microsomes using phenacetin as substrate after 30 mins by LC/MS/MS analysis; format: ADME
T1 sequence (P05177 whole entry): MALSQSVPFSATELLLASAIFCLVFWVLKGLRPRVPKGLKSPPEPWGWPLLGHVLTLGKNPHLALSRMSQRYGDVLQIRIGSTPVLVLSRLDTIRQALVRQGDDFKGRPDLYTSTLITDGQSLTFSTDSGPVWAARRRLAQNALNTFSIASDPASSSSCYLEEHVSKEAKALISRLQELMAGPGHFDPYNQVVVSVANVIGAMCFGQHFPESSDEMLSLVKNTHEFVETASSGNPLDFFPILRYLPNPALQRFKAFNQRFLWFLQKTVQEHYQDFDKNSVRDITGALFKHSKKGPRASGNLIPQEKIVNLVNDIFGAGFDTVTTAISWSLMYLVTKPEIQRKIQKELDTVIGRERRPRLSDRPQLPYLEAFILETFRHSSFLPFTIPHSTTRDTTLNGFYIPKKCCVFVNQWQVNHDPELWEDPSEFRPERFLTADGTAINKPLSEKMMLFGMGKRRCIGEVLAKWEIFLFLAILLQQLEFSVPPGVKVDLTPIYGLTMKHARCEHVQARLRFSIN

Cytochrome P450 2D6 = Cytochrome P450 2D6 (Homo sapiens, UniProt P10635); experiment: Inhibition of CYP2D6 in human liver microsomes using dextromethorphan as substrate after 30 mins by LC/MS/MS analysis; format: ADME
Cytochrome P450 2C9 = Cytochrome P450 2C9 (Homo sapiens, UniProt P11712); experiment: Inhibition of CYP2C9 in human liver microsomes using warfarin as substrate after 30 mins by LC/MS/MS analysis; format: ADME
Cytochrome P450 2C19 = Cytochrome P450 2C19 (Homo sapiens, UniProt P33261); experiment: Inhibition of CYP2C19 in human liver microsomes using mephenytoin as substrate after 30 mins by LC/MS/MS analysis; format: ADME
[16] = biological target: Sodium channel protein type 9 subunit alpha (Rattus norvegicus, UniProt O08562); experiment: Inhibition of rat Nav1.7 channel by automated voltage clamp analysis
Homo sapiens = species: Homo sapiens; experiment: Selectivity ratio of IC50 for human Nav1.5 to IC50 for human Nav1.7
[17] = biological target: Sodium channel protein type 8 subunit alpha (Homo sapiens, UniProt Q9UQD0); experiment: Inhibition of full length human Nav1.6 channel expressed in HEK cells co-expressing human sodium channel subunit beta1 at holding potential -35 mV by automated voltage clamp analysis; format: cell-based, HEK293
[18] = biological target: Sodium channel protein type 3 subunit alpha (Homo sapiens, UniProt Q9NY46); experiment: Inhibition of full length human Nav1.3 channel expressed in HEK cells co-expressing human sodium channel subunit beta1 at holding potential -50 mV by automated voltage clamp analysis; format: cell-based, HEK293
[19] = biological target: Sodium channel protein type 4 subunit alpha (Homo sapiens, UniProt P35499); experiment: Inhibition of full length human Nav1.4 channel expressed in HEK cells co-expressing human sodium channel subunit beta1 by automated voltage clamp analysis; format: cell-based, HEK293
[20] = biological target: Sodium channel protein type 2 subunit alpha (Homo sapiens, UniProt Q99250); experiment: Inhibition of full length human Nav1.2 channel expressed in HEK cells co-expressing human sodium channel subunit beta1 at holding potential -35 mV by automated voltage clamp analysis; format: cell-based, HEK293
[21] = biological target: Sodium channel protein type 1 subunit alpha (Homo sapiens, UniProt P35498); experiment: Inhibition of full length human Nav1.1 channel expressed in HEK cells co-expressing human sodium channel subunit beta1 at holding potential -40 mV by automated voltage clamp analysis; format: cell-based, HEK293
[22] = biological target: Sodium channel protein type 10 subunit alpha (Homo sapiens, UniProt Q9Y5Y9); experiment: Inhibition of full length human Nav1.8 channel expressed in HEK cells co-expressing human sodium channel subunit beta3 at holding potential -20 mV by manual voltage clamp analysis; format: cell-based, HEK293

Sodium channel protein type 5 subunit alpha, sequence (Q14524 whole entry): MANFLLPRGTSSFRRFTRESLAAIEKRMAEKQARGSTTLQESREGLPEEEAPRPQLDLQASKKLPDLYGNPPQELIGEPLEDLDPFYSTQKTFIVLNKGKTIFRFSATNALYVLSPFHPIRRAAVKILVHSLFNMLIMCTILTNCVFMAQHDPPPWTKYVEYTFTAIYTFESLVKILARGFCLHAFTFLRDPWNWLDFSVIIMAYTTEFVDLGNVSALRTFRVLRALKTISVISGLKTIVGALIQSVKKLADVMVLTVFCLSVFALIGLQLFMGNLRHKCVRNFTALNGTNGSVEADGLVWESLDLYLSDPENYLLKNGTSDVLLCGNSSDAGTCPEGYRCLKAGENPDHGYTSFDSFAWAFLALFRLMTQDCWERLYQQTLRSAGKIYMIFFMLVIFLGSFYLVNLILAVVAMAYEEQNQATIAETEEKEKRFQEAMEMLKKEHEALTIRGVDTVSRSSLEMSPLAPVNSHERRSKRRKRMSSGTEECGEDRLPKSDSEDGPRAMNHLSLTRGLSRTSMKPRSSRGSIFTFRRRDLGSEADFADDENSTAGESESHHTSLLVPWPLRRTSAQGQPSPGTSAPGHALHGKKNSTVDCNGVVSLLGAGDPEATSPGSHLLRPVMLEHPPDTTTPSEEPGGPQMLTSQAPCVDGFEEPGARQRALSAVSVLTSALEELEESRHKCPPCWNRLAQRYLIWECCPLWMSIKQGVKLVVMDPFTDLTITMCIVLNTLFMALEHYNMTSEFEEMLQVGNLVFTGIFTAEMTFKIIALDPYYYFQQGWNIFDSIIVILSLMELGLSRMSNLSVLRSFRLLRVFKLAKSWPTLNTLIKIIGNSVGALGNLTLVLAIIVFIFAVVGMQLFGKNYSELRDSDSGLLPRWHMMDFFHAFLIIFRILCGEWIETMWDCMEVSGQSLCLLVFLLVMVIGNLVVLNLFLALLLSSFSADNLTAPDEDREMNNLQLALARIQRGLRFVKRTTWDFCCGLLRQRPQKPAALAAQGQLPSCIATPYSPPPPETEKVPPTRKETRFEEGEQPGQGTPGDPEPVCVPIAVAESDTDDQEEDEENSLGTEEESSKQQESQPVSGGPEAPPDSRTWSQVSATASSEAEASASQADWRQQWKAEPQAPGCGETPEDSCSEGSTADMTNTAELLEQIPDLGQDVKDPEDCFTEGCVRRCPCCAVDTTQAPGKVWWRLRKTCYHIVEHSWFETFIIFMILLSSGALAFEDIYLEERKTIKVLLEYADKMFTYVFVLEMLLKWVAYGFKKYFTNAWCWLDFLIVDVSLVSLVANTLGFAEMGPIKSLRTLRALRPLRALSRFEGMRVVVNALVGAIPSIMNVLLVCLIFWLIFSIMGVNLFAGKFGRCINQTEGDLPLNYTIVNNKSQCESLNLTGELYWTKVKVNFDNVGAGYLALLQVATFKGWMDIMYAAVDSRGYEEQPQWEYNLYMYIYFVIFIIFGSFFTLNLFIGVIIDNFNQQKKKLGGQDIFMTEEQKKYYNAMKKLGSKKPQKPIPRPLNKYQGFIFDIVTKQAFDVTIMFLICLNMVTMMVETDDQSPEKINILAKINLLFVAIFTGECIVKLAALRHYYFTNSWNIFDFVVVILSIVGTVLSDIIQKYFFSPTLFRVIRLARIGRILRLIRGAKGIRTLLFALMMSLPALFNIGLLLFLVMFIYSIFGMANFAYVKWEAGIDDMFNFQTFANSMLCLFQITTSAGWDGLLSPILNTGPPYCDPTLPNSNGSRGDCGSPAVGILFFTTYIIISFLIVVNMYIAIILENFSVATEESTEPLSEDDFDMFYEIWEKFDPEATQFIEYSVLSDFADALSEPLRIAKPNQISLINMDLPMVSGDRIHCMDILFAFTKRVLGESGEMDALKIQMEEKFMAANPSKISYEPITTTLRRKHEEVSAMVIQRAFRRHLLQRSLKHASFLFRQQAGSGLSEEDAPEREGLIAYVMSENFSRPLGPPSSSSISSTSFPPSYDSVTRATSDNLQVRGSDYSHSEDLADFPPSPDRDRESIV
hERG (KCNH2), sequence (Q12809 whole entry): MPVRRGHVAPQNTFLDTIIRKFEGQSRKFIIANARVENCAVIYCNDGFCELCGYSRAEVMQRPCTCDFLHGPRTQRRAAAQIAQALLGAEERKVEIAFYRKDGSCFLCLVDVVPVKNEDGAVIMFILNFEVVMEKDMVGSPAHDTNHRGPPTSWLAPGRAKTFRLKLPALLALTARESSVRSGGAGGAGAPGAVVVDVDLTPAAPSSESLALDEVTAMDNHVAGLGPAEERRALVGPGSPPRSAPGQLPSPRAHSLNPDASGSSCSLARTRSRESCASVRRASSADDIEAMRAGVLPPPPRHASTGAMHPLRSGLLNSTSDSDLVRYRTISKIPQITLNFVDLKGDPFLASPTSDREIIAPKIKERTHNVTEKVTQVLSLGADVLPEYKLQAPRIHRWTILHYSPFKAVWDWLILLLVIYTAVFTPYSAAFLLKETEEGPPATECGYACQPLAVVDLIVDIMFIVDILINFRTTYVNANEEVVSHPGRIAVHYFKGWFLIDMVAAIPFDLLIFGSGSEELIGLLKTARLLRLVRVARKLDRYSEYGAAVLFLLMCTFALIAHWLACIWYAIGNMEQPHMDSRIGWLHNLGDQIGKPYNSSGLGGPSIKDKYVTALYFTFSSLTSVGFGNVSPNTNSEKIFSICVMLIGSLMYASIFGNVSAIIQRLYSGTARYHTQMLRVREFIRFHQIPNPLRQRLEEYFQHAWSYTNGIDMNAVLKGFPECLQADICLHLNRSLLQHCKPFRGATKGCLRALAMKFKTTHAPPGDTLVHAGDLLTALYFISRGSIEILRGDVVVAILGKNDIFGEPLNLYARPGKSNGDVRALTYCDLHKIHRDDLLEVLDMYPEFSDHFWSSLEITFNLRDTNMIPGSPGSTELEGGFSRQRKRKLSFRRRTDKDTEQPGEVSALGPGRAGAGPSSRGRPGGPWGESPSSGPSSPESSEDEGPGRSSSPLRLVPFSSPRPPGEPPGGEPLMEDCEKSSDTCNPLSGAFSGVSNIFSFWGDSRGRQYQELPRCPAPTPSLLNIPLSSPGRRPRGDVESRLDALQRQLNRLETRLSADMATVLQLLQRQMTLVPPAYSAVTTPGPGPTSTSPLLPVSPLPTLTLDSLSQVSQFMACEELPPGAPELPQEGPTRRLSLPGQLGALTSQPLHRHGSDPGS
Sodium channel protein type 9 subunit alpha (Homo sapiens, UniProt Q15858), sequence (Q15858 whole entry): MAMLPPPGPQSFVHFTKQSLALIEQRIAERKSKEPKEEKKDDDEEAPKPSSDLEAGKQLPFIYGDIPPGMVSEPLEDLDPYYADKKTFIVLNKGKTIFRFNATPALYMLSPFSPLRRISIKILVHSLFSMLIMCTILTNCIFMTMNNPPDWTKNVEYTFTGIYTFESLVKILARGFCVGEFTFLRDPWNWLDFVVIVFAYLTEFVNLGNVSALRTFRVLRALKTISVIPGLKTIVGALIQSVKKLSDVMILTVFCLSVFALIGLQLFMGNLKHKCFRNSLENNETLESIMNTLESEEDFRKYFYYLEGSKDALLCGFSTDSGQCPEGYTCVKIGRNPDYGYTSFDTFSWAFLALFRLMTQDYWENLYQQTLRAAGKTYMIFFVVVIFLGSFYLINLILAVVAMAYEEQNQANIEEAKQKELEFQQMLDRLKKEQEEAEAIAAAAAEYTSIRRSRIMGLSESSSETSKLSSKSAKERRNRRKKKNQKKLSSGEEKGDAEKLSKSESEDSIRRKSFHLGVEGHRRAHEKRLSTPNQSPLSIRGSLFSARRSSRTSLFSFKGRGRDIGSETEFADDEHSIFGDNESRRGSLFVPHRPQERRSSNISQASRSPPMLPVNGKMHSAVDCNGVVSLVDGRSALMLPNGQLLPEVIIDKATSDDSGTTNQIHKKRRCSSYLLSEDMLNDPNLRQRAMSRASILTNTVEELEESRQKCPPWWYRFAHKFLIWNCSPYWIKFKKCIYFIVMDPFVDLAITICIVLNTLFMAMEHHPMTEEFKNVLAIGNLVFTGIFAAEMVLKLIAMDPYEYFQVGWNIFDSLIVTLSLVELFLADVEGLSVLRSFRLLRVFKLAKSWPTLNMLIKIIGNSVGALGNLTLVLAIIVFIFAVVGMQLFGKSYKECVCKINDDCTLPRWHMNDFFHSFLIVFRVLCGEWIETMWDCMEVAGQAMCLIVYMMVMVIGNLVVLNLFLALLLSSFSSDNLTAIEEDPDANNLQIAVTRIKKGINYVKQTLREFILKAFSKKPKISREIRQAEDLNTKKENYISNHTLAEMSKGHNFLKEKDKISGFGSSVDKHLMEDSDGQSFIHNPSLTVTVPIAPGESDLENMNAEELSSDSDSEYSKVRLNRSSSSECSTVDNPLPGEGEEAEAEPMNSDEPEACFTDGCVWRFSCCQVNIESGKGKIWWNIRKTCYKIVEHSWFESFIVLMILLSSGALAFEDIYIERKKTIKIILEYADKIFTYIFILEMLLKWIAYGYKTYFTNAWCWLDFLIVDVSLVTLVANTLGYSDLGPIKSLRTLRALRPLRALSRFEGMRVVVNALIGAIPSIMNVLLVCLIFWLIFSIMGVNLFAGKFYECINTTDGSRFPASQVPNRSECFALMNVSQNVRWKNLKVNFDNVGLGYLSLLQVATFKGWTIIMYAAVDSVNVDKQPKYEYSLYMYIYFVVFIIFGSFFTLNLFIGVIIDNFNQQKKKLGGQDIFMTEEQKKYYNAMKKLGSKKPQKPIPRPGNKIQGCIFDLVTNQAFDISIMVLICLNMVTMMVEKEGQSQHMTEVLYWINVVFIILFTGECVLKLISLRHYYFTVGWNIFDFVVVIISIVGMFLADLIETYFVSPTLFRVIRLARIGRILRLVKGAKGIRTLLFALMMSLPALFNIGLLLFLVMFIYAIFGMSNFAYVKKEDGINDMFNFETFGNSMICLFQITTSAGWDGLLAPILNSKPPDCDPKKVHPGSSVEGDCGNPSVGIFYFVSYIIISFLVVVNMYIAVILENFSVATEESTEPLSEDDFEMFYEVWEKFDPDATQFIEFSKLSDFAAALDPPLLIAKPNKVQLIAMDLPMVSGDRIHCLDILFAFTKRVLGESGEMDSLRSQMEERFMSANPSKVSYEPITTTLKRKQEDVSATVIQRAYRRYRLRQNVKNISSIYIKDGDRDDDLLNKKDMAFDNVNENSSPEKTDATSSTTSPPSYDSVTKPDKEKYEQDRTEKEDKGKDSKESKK

O=S(=O)(Nc1ncns1)c1cc(F)c(Oc2ccc(Cl)cc2-c2cccc3nccn23)cc1F
IC50 [1]: 0.017 µM | inhibition at 5 µM (hERG (KCNH2)): < 11% | IC50 [2]: > 10 µM

O=c1[nH]c2ccc(-c3cc(Cl)ccc3Oc3cc(F)c(S(=O)(=O)Nc4ncns4)cc3F)cc2[nH]1
inhibition at 5 µM (hERG (KCNH2)): < 11% | IC50 [2]: > 10 µM

Nc1noc2ccc(CCOc3cc(F)c(S(=O)(=O)Nc4ncns4)cc3F)cc12
IC50 [1]: 0.241 µM | inhibition at 5 µM (hERG (KCNH2)): < 11%

Nc1noc2ccc(-c3cc(Cl)ccc3Oc3cc(F)c(S(=O)(=O)Nc4ncns4)cc3F)cc12
Activity (Rattus norvegicus [3]): Active | Ratio IC50 [4]: > 60 | Activity (Rattus norvegicus [5]): inactive | Activity (Rattus norvegicus [6]): Dose-dependent effect | Activity (Rattus norvegicus [7]): inactive | Activity (Mus musculus [8]): Dose-dependent effect | Activity (Mus musculus [9]): inactive

Nc1noc2ccc(-c3cc(Cl)ccc3Oc3cc(F)c(S(=O)(=O)[N-]c4ncns4)cc3F)cc12.[Na+]
Activity (Mus musculus [10]): 59% | Cp(f) (Rattus norvegicus [11]): 250 nM | Cp(f) (Rattus norvegicus [12]): 250 nM | Activity (Mus musculus [13]): 83% | Activity (Rattus norvegicus [14]): 43% | Activity (Rattus norvegicus [15]): 60%

Nc1n[nH]c2ccc(-c3cc(Cl)ccc3Oc3cc(F)c(S(=O)(=O)Nc4ncns4)cc3F)cc12
inhibition at 5 µM (hERG (KCNH2)): < 11% | IC50 [2]: > 10 µM

Nc1noc2ccc(-c3cc(Cl)ccc3Oc3cc(F)c(S(=O)(=O)NCc4ncccn4)cc3F)cc12
IC50 [1]: 5.2 µM

Nc1noc2ccc(-c3cccnc3Oc3cc(F)c(S(=O)(=O)Nc4ncns4)cc3F)cc12
inhibition at 5 µM (hERG (KCNH2)): < 11%

Nc1noc2ccc(-c3cc(Cl)ccc3Oc3cc(F)c(S(=O)(=O)Nc4cscn4)cc3F)cc12
inhibition at 5 µM (hERG (KCNH2)): < 11%

Nc1noc2ccc(-c3cc(Cl)ccc3Oc3cc(F)c(S(=O)(=O)Nc4ncccn4)cc3F)cc12
IC50 (Cytochrome P450 3A4): > 10 µM | IC50 (Cytochrome P450 1A2): > 10 µM | IC50 (Cytochrome P450 2D6): > 10 µM | IC50 (Cytochrome P450 2C9): 0.57 µM | IC50 (Cytochrome P450 2C19): > 10 µM | inhibition at 5 µM (hERG (KCNH2)): < 11%

O=S(=O)(Nc1ncns1)c1cc(F)c(Oc2ccc(Cl)cc2-c2cnc3n2CCNC3)cc1F
inhibition at 5 µM (hERG (KCNH2)): < 11% | IC50 [2]: > 10 µM

O=S(=O)(Nc1ncns1)c1cc(F)c(Oc2ccc(Cl)cc2-c2ccc3nccnc3c2)cc1F
Ratio IC50 [4]: > 200 | IC50 [16]: 0.74 µM | inhibition at 5 µM (hERG (KCNH2)): < 11% | Ratio IC50 (Homo sapiens): > 2700 | IC50 [2]: > 10 µM

Nc1noc2ccc(-c3ccccc3Oc3cc(F)c(S(=O)(=O)Nc4ncns4)cc3F)cc12
inhibition at 5 µM (hERG (KCNH2)): < 11%

O=S(=O)(Nc1ncns1)c1cc(F)c(Oc2ccc(Cl)cc2-c2ccc3[nH]cnc3c2)cc1F
inhibition at 5 µM (hERG (KCNH2)): < 11% | IC50 [2]: > 10 µM

CNc1noc2ccc(-c3cc(Cl)ccc3Oc3cc(F)c(S(=O)(=O)Nc4ncns4)cc3F)cc12
inhibition at 5 µM (hERG (KCNH2)): < 11% | IC50 [2]: 0.23 µM

Nc1noc2ccc(-c3cc(F)ccc3Oc3cc(F)c(S(=O)(=O)Nc4ncns4)cc3F)cc12
inhibition at 5 µM (hERG (KCNH2)): < 11%

Nc1nc2cc(-c3cc(Cl)ccc3Oc3cc(F)c(S(=O)(=O)Nc4ncns4)cc3F)ccc2[nH]1
IC50 [17]: 0.0008 µM | IC50 [18]: 9.33 µM | IC50 [19]: > 10 µM | inhibition at 5 µM (hERG (KCNH2)): < 11% | IC50 [20]: 0.0002 µM | Ratio IC50 (Homo sapiens): > 12000 | IC50 [21]: 6.38 µM | IC50 [22]: 3.85 µM | IC50 [2]: > 10 µM

O=S(=O)(Nc1ncns1)c1cc(F)c(Oc2ccc(Cl)cc2-c2ncc3cnccn23)cc1F
inhibition at 5 µM (hERG (KCNH2)): < 11%

Source: ChEMBL document CHEMBL3804797, “Discovery of Aryl Sulfonamides as Isoform-Selective Inhibitors of NaV1.7 with Efficacy in Rodent Pain Models” (ACS Med Chem Lett, 2016)
